Measurements published in patent publication US20250241890A1, “1,4-DIUREAS AND 1,4-DITHIOUREAS AND USES THEREOF” (Purdue Research Foundation, priority 2024, published 2025).

Target: T1, α-synuclein (α-syn) (Homo sapiens, UniProt P37840)
T1 construct: purchased rPeptide (Watkinsville, GA)
Assay: PICUP assay of α-syn oligomer formation
Type: biochemical
Conditions: α-syn 60 μM, compound 50 μM (~molar ratio 1:1)
Description: Chemical and peptide source. Dimethylsulfoxide (DMSO) and thioflavin-T (ThT) were purchased from Alfa Aesar (Ward Hill, MA). Recombinant α-synuclein (α-syn) was procured from rPeptide (WatKinsville, GA). The recombinant p-tau isoform 1N4R was prepared as published previously (Fortin et al. 2021, Sui et al. 2015, Liu et al. 2020). Concerning the preparation of tau 0N4R, a bacterial expression plasmid consisting of the vector pET30a carrying a cDNA encoding the human Tau 0N4R isoform was a kind gift of Dr. Benjamin Wolozin (Boston University). E. coli stock (Rosetta BL21 E. coli (CamR) containing pET30a [0N4R tau wt] (KanR)) was grown in LB medium supplemented with kanamycin (50 μg/mL) and chloramphenicol (50 μg/mL). Protein over-expression was induced by the addition of 1 mM IPTG for ˜18 hours at 37° C., and cells were pelleted by centrifugation at 6,000 g for 15 minutes at 4° C. The cells were resuspended in lysis buffer (10 mM Hepes, pH 7.4, 50 mM NaCl, 1 mM MgCl2, 1 mM PMSF, 1× PIC, and 0.5 mM DTT) and lysed by sonication at 30 seconds “On” and 1 minute “Off” at ˜30-45% power for ˜3-5 minutes. Lysate was centrifuged at 10,000 rpm for 10 minutes at 4° C., and supernatant was transferred with 7.8 ml (total) of 3M NaCl. The lysate was incubated for 10 minutes in 80° C. water bath, then cooled for 10 minutes in an ice bath. The lysate was centrifuged at 10,000 rpm at 4° C. for 10 minutes, and the supernatant was transferred to a new tube. The supernatant was dialyzed overnight against cation exchange buffer (50 mM MES, […], 1 mM DTT, pH 6.0). The dialysate was loaded onto a HiPrep SP HP column, and proteins were eluted with a linear gradient ranging from 50 mM to 1 M NaCl. General Characterizations. ^1H and ^13C {1H} NMR spectra were recorded using a 500 MHz Bruker instrument working at a frequency of 500 MHz for ^1H and at 126 MHz for ^13C. Chemical shifts are reported in ppm using residual solvent resonances as internal reference (δ 2.50 and δ 39.51 for ^1H and ^13C in DMSO-d6, respectively). ^1H NMR data are reported as follows. b=broad, s=singlet, d=doublet, t=triplet, q=quartet, and m=multiplet. Coupling constants are given in hertz. The purity of all compounds and synthetic intermediates was judged to be 95% or better based on ^1H NMR. IR measurements were performed in a Nicolet FTIR as thin films in the Purdue Drug Discovery facility. High-resolution mass spectrometry analyses were conducted at the MSU Mass Spectrometry facility. Thioflavin fluorescence assays. Thioflavin fluorescence assays were used to monitor fibril formation of commercial recombinant α-syn at a final concentration of 2 μM and treated with control DMSO and different compounds. The recombinant α-syn obtained from rPeptide has been validated with proper quality control to confirm the monomeric state of the protein. Kinetics of fibril formation have been performed using ThT as published previously.^6, 12, 13, 24 The fluorescence emission experiments were performed with the excitation and emission wavelengths set at 440 and 485 nm, respectively, with a Synergy HT multi-mode microplate reader (BioTek, Winooski, VT). Samples were measured in three replicates. Experiments were repeated three times using different α-syn stock solutions. For each time point, arbitrary units of fluorescence were calculated from the mean values normalized against the maximum value. The percentage of fluorescence intensity at the plateau phase in Table 1 was expressed as mean #SEM. Concerning the dose response curve depicted in FIG. 2, the data were plotted using GraphPad Prism. Photo-induced Cross-linking of Unmodified Proteins (PICUP) Assay. […] Different compounds were added to the protein solution at a final concentration of 50 μM, resulting in a molar ratio of 1:1. PICUP assays were performed with the following controls: samples without light exposition, without Ru(bpy) or ammonium persulfate, and without compound (i.e., 0.125% DMSO). […]

Compound	percentage of oligomer reduction (PICUP, relative pixel density)	effect on α-syn oligomer formation (high molecular weight bands) by PICUP
O=C(Nc1ccc(NC(=O)Nc2cccc3[nH]ccc23)cc1)Nc1cccc2[nH]ccc12 [Compound 1, 3-(1H-indol-4-yl)-1-(4-{[(1H-indol-4-yl)carbamoyl]amino}phenyl)urea]	52.6%	
S=C(Nc1ccc(NC(=S)Nc2cccc3[nH]ccc23)cc1)Nc1cccc2[nH]ccc12 [Compound 2, 3-(1H-indol-4-yl)-1-(4-{[(1H-indol-4-yl)carbamothioyl]amino}phenyl)thiourea]	84.2%	reduced α-syn oligomer formation
S=C(Nc1ccc(NC(=S)Nc2cccc3cc[nH]c23)cc1)Nc1cccc2cc[nH]c12 [Compound 8, 3-(1H-indol-7-yl)-1-(4-{[(1H-indol-7-yl)carbamothioyl]amino}phenyl)thiourea]	91.2%	reduced α-syn oligomer formation
